Measurements published in EP0348509B1, “ANTI-RETROVIRAL DRUG” (TSUMURA & CO., priority 1987, dated 1989).
Converted amounts (≈) assume the structure as drawn.

What was measured:
[1] = test system: RSV. SR-A strain; assay: Focus formation by RSV in primary chicken embryo fibroblasts; type: cell-based; conditions: Rous sarcoma virus, Fibroblast, 192 h, number of foci, 8 days, read-out: IC₅₀
Experimental: A 24-well microplate was charged with 3.5 x 10⁵ cells per well of primary chicken embryo fibroblasts, and the fibroblasts were cultured at 37°C in an atmospher of 5% CO₂ for 6 hours. Then an RSV. SR-A strain having an infection multiplicity (M.O.I.) of about 2.0 x 10⁻⁴ and the test substance were added, and culturing was continued for further 2 hours. The cells were washed and the test substance and an agar culture medium were added, and then culturing was continued at 37°C in an atmospher of 5% CO₂ for further 8 days. The number of foci was counted, and the results are shown as IC₅₀ in Table 6.

[2] = test system: HTLV-1; assay: HTLV-1 production by MT-2 cells (RNA hybridization with 32P-labelled HTLV-1 cDNA); type: cell-based; conditions: 4 days, compared with control
Experimental: The test substance and 1 x 10⁵ cells per well of MT-2 cells were charged in a 24-well microplate, and culturing was conducted for 4 days. Then the MT-2 cell suspension in each well was subjected to centrifugal separation, and the supernatant was extracted with phenol to obtain RNA of HTLV-1. This RNA and a known amount of HTLV-1 cDNA were plotted on a nitrocellulose paper, a comparative determination was carried out according to the hybridization using ³²P-labelled HTLV-1 cDNA, and the hydridization rate by the test substance was calculated by comparing the amount of the produced virus with that of the control.
The results are shown as the hybridization rate (%) in Table 7.

[3] = intravenous administration; species not given; cited from earlier work
[4] = test system: Reverse transcriptase; assay: Inhibition of reverse transcriptase activity ([3H]dTTP incorporation into acid-insoluble fraction)
Experimental: OF TOKYO PRESS TOKYO/KARGER, BASEL, pp. 603-605 (1975)], and then a reaction mixture liquid having the following composition was prepared.
By "1 unit" is meant the unit of the relative activity of the reverse transcriptase required to consume 1 nmol of dNTP (deoxynucleic acid phosphate at 37°C for 1 hour.
Then the dry extract powder obtained in the above-mentioned Specific Example, baicalein, baicalin, quercetin or hesperetin and refined water were added to 20 ml of the above-mentioned reaction mixture liquid so that the total volume was 50 µl, the incorporation of the radioactivity of [³H]dTTP into the acid-insoluble fraction was measured by a Beckmann scintillation counter, and the percent inhibition was calculated as the reverse transcriptase activity with respect to each concentration.

[5] = test system: male rats of the Wistar line; assay: Acute toxicity by oral administration, rats; type: in vivo; conditions: dose of 1 g/kg
[6] = test system: male mice of the ddY line; assay: Acute toxicity by oral administration, mice; type: in vivo; conditions: dose of 1 g/kg
[7] = test system: HIV; assay: Inhibition of modification of HIV-infected MT-2 cells (living cell count after 1 week); type: cell-based; conditions: 5 µg/ml added; MT-2 cells infected with HIV; living cells counted after 1 week
Experimental: MT-2 cells were cultured at a concentration of 3 x 10⁴ cells/ml in a culture medium of RPMI 1640 (supplied by Gibco Co.) containing 10% FCS (supplied by Gibco Co.). After 2 days, the MT-2 cells were infected with HIV at a ratio of 200 cells per HIV, were distributed into groups to which 5 µg/ml of baicalein, quercetin or hesperetin was added and non-added groups (control groups), and the effect of the addition was determined.

| Structure (SMILES) | Percent inhibition (%) ([4]; concentration 1 µg/ml) | Percent inhibition (%) ([4]; concentration 2 µg/ml) | Percent inhibition (%) ([4]; concentration 5 µg/ml) | Percent inhibition (%) ([4]; concentration 10 µg/ml) | Percent inhibition (%) ([4]; concentration 20 µg/ml) | acute toxicity (death) [5] | acute toxicity (death) [6] | modification of MT-2 cells with HIV was inhibited at a ratio [7] | other results |
| --- | --- | --- | --- | --- | --- | --- | --- | --- | --- |
| O=C1c2ccccc2C(=O)c2c1cc(S(=O)(=O)O)c(O)c2O [Alizarine Red S] |  |  |  |  |  |  |  |  | IC50 [1]: 2.1 µg/mL (≈ 6.56 µM); Hybridization Rate (%) ([2]; Amount Added 20 µg/ml): 61.7%; LD₅₀ [3]: 70 mg/kg |
| O=C(O)CN(CC(=O)O)Cc1cc2c(c(O)c1O)C(=O)c1ccccc1C2=O [alizarin complexon] |  |  |  |  |  |  |  |  | IC50 [1]: 4.3 µg/mL |
| O=C(O)[C@H]1O[C@@H](Oc2cc3oc(-c4ccccc4)cc(=O)c3c(O)c2O)[C@H](O)[C@@H](O)[C@@H]1O [baicalin] | 19 | 27 | 73 | 90 | 100 | no animal died | no animal died |  |  |
| O=c1c(O)c(-c2ccc(O)c(O)c2)oc2cc(O)cc(O)c12 [quercetin] | 77 | 96 | 99 | 100 | 100 | no animal died | no animal died | at least 90% | Percent inhibition (%) ([4]; concentration 50 µg/ml): 100% |
| O=C1c2ccccc2C(=O)c2c(O)c(O)cc(O)c21 [purpurin] |  |  |  |  |  |  |  |  | Hybridization Rate (%) ([2]; Amount Added 5 µg/ml): 61.3% |
| O=c1cc(-c2ccccc2)oc2cc(O)c(O)c(O)c12 [baicalein] | 92 | 98 | 100 | 100 | 100 | no animal died | no animal died | at least 90% | Percent inhibition (%) ([4]; concentration 0.1 µg/ml): 29%; Percent inhibition (%) ([4]; concentration 0.2 µg/ml): 35%; Percent inhibition (%) ([4]; concentration 0.5 µg/ml): 74% |
| COc1ccc([C@@H]2CC(=O)c3c(O)cc(O)cc3O2)cc1O [hesperetin] | 99 | 100 | 100 | 100 | 100 | no animal died | no animal died | at least 90% | Percent inhibition (%) ([4]; concentration 50 µg/ml): 100% |
| O=C1c2ccccc2C(=O)c2c1ccc(O)c2O [alizarin, 1,2-dihydroxyanthraquinone] |  |  |  |  |  |  |  |  | LD₅₀ [3]: 120 mg/kg |
